Results published in patent US8541670B2, “Compositions and methods for inhibiting tumor cell growth” (priority 2007, dated 2013).
Where no end group is shown, it is not given here.

Key:
PKA and CDK5 = experiment: In vivo phosphorylation of DARPP-32 at Thr-34 (PKA site) and Thr-75 (CDK5 site); design: species or system mouse; details: striatum
Description: As a striatal specific substrate for PKA and CDK5, the phosphorylation level of DARPP-32 was determined at Thr-34 (the PKA site) or at Thr-75 (the CDK5 site)(Huang, et al. (1999) supra).

[1] = tested on: the other kinases assayed; experiment: In vivo selectivity, western blot of phosphorylated substrates, other kinases inhibited in vitro at higher concentrations; design: species or system mouse; details: versus DMSO hemisphere
Description: To analyze in vivo selectivity, ZaTa was injected into one hemisphere and DMSO in the other hemisphere, as above, and a series of western blot analyses was preformed with phospho-specific antibodies which recognize a phosphorylated substrate or each one of the kinases that ZaTa inhibited at higher concentrations in vitro. […] Given the high functional and structural homology between p70S6K and AKT, the in vivo inhibitory effect of ZaTa on p70S6K was contemplated. Furthermore, the in vivo effect of ZaTa on the phosphorylation levels of substrates for PKA, PKC, CDKs using phospho-specific antibodies recognizing the phosphorylated consensus sites of these kinases was analyzed. In contrast to the consistent decrease in phosphorylation of AKT substrates, significant changes in the phosphorylation level of PKA, PKC and CDKs substrates was not observed after in vivo injection of ZaTa.
Phosphorylation sites for kinases analyzed herein included Ser-235/236 S6 (a substrate for p70S6K), Tyr-207 CRKL (a substrate for Abl; Zipfel, et al. (2004) supra), Ser-241 PDK1 (a substrate for PI3K), Tyr-1022/1023 JAK1 (a substrate for JAK3; Wang, et al. (2003) supra), Ser-421 Huntingtin (a substrate for SGK; Rangone, et al. (2004) supra), Tyr-783 PLC (a substrate for TrkB; Middlemas, et al. (1994) supra), and Ser-338 cRaf (a substrate for PAK3; King, et al. (1998) supra).

AKT = biological target: T1, AKT (Homo sapiens, UniProt P31749); experiment: Screen of PKAc peptide library for effect on catalytic activity of AKT; format: biochemical; details: single peptide
T1 construct: purchased Upstate Biotechnology
From the text: Unlike PKAc and protein kinase C (PKC) for which potent inhibitor peptides are readily available and widely used, inhibitors of AKT are generally lacking (Brazil, et al. (2004) supra). […] Moreover, optimal substrate motifs for AKT have been modified to design AKT inhibitors (Obata, et al. (2000) J. Biol. Chem. 275:36108-36115). Because the full-length PKAc protein inhibited the catalytic activity of AKT, a peptide library based on the human (GENBANK Accession No. NP_002721; SEQ ID NO:1) and bovine (GENBANK Accession No. CAA47627; SEQ ID NO:2) PKAc protein sequences was designed and synthesized. This library contained 96 overlapping peptides (Table 1), covering the full-length protein sequence of human and bovine PKAc from the N- to C-terminus. The library was extensively screened to identify fragments of PKAc that mediated the inhibitory effect of PKAc toward AKT.
These peptides included peptide 49 (SEQ ID NO:56), 53 (SEQ ID NO:60), 62 (SEQ ID NO:69), 63 (SEQ ID NO:70) and 64 (SEQ ID NO:71). Combinations of consecutive overlapping peptide fragments were also assayed for an effect on the catalytic activity of AKT. A significant inhibitory effect was also observed when peptides 25 through 36 were combined (i.e., SEQ ID NOs:32-43), peptides 37 through 48 were combined (i.e., SEQ ID NOs:44-55), peptides 49 through 60 were combined (i.e., SEQ ID NOs:56-67), and peptides 61 through 72 were combined (i.e., SEQ ID NOs:68-79).

AKT2 = AKT2 (Homo sapiens, UniProt P31751); experiment: In vitro kinase assay AKT2; format: biochemical; details: ten times higher concentration than 0.1 μM
Description: As a specific substrate, the phosphorylation level of GSK-3[…] at Ser-9 was also evaluated. […] The decrease was specific to the AKT phosphorylation site on GSK-3[…] at Ser-9, since a change in the phosphorylation level of GSK-3[…] at Tyr-216 or GSK-3[…] at Tyr-279 was not observed. Moreover, the in vivo reduction of the phosphorylation of AKT substrates was more obvious at the injection site, since a significant change in the phosphorylation of AKT substrates in the frontal cortex or cerebellum between the two hemispheres was not observed. […] To test the specificity/selectivity of ZaTa as the inhibitor of AKT1 versus the other major kinases, a series of in vitro kinase assays was performed at IC50 for AKT1 and at ten times higher concentrations. A panel of the following 32 kinases was first tested in vitro using the active form of each kinase and a specific substrate: AKT2, AKT3, PKA, PKC[…], PKC, PI3K[…], PI3K[…], PI3K, SGK, PAK2, PAK3, SAPK2/p38, Abl, CaMKII, CDK1/cyclinB, CDK5/p35, CK1, CK2, CSK, GSK3[…], GSK3[…], JNK1[…]1, MAPK1, p70S6K, PDGFR[…], PDGFR[…], PDK1, PKG1[…], TrkB, JAK2, JAK3, and Syk. […] However, at ten times higher concentration, ZaTa inhibited AKT2 (63%), PI3K[…] (72%), p70S6K (64%), SGK (73%), PAK3 (83%), JAK3 (79%), TrkB (84%), and Abl (42%). […]

Sequence of AKT2 (P31751 whole entry, species assumed): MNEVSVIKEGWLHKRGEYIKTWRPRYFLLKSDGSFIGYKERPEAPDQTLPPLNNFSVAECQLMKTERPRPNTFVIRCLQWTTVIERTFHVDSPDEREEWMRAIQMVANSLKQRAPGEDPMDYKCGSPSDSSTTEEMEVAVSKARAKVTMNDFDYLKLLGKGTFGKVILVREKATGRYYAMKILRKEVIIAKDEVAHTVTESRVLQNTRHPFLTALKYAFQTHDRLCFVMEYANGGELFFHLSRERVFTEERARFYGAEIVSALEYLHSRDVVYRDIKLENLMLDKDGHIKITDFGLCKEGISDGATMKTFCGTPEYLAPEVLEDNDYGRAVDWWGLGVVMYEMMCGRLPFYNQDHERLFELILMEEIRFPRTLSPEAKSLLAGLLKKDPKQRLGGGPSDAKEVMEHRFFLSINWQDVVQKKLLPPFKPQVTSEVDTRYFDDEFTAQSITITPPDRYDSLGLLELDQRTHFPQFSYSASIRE
T1 sequence (P31749 whole entry): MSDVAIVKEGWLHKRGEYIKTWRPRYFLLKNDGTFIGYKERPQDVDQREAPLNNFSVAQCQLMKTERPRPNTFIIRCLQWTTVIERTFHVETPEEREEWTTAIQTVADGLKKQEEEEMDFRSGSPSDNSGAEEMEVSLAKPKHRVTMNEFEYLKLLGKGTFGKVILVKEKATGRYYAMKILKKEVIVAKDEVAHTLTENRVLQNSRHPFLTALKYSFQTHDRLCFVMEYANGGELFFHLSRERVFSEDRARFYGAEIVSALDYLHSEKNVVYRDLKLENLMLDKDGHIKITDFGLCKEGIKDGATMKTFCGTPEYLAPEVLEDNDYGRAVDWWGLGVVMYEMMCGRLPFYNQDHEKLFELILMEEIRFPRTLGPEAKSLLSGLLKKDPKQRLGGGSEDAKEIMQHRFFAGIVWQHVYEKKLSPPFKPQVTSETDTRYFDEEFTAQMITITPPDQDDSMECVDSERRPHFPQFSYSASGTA

AKRVKGRTWTLCGTPEY [ZaTa]
phosphorylation of DARPP-32 at Thr-34 or Thr-75 (PKA and CDK5): did not cause any significant change
in vivo inhibitory effects on the other kinases assayed [1]: No in vivo inhibitory effects
inhibitory effect toward AKT, individual library peptides (AKT): significant inhibitory effects
inhibition of AKT2 (AKT2): 63%
